The test system of assay [1] is voltage-gated sodium channels. The assay is described as follows: Fluorometric membrane potential assay in SK-N-SH cells (veratridine stimulus, FLIPR). The assay is classed as cell-based. The settings on record: 10 μM compound, 5 μM veratridine. As for the experimental part: Screening Assay for Voltage-Gated Sodium Channel Antagonists Fluorometric Membrane Potential Assay
SK-N-SH neuroblastoma cells were maintained in a propagation medium containing modified Eagle's medium and 10% (v/v) fetal bovine serum and were incubated at 37° C. in a 5% CO2 atmosphere. Only cells with fewer than 20 passages were used in each assay. All drugs were prepared in DMSO, and the final concentration of solvent was less than 0.1% (v/v). Veratridine, a toxin that selectively promotes persistent activation of voltage-gated sodium channels, served as the stimulus. 24 hr prior to testing, 1×10^5 cells/well were plated into 96-well plates specifically designed for use in a fluorescent imaging plate reader (FLIPR) (Molecular Devices, Sunnyvale, Calif.)
Prior to screening, monolayers of cells were loaded with 100 μL/well of a proprietary voltage-sensitive dye (Molecular Devices, Sunnyvale, Calif.) for 30 min at 37° C. After this incubation period, the cells were stimulated with 5 μM veratridine in the presence or absence of investigational compounds (prepared at a final concentration of 10 μM in DMSO). A sample containing 5 μM veratridine and 10 μM tetrodotoxin accounted for nonspecific activity. The fluorescence was monitored by the FLIPR (Molecular Devices) from 10 sec prior to drug addition (50 μL) to 170 sec after drug addition at 25° C. During sodium channel activation, the cells depolarize and the dye associates with cell membranes, resulting in increased fluorescence.

The subject of assay [2] is mechanical allodynia after L5 spinal nerve ligation. The assay is described as follows: Chung Model (spinal nerve ligation) antiallodynic effect. The class given is in vivo. As to conditions: rat; for % MPE in the Chung Model: oral, screening dose (not given). The source says:
Procedure for Testing Antiallodynic Effect
The procedure used to detect the antiallodynic effect of a compound of the present invention for which there is a good correlation with human efficacy for the treatment of pain is the procedure for the measurement of allodynia found in the Chung Model (Kim S. H. and Chung J. M., An Experimental Model for Peripheral Neuropathy Produced by Segmental Spinal Nerve Ligation in the Rat, Pain, 1992, 50, 355-363). The antiallodynic effect of the composition of the present invention in the Chung Model is expressed in % MPE (Maximum Possible Effect).
Male Sprague-Dawley rats, weighing approximately 200 g each were anesthetized with isoflurane. The spinal nerve at the level of L5 was exposed through an incision just left of the dorsal midline and tightly ligated with 6-0 silk. At various times after surgery, animals were tested for mechanical allodynia with von Frey hairs (monofilaments which are calibrated to bend under a certain amount of pressure, ranging from 0.41 to 15.1 g). In order to calculate a paw withdrawal threshold (PWT), tactile allodynia was measured by recording the pressure at which the affected paw was withdrawn from graded stimuli according to the procedure of S. R. Chaplan, J. W. Pogrel, T. L. Yaksh, Role of Voltage-Dependent Calcium Channel Subtypes in Experimental Tactile Allodynia, J. Pharmacol. Exp. Ther., 1994, 269, 1117-1123. Normal rats can withstand at least 15 g of pressure without responding. Operated rats, however, can respond to as little as 0.25 g of pressure. The surgery was deemed successful if the animal responded with a PWT of less than 4 g of pressure applied to the affected paw. […] The PWT was used to calculate the % maximal possible effect (% MPE) according to the formula: %MPE=100×[(PWT−CT)/(CO−CT)]; wherein PWT is defined as Paw Withdrawal Threshold, CT is Control Threshold, and CO is Cut Off (defined as 15 g).
The sham operation consisted of a similar surgery; the spinal nerve was visualized without being ligated.
Compounds selected from Formula (I) and Formula (II) were tested for activity in treating or modulating neuropathic pain by being dissolved or suspended in either water or hydroxypropyl methylcellulose, respectively. Postoperative animals between 14 to 42 days were fasted overnight prior to dosing. Animals were orally dosed and dosage volumes were calculated on a 4 mL/kg basis.

The subject of assay [3] is maximal electroshock extensor seizure. Description: Mouse maximal electroshock test (MES) anticonvulsant model. As to conditions: oral. The class given is in vivo. On the procedure:
Procedure for Testing in Mouse Anticonvulsant Model
The activity of the present compounds as anticonvulsant agents was determined using a standard mouse “maximal electroshock test” (MES). In this test, activity was indicated by a block of the […] extensor seizure, as described by Swinyard, et al. (J. Pharmacol. Exptl. Therap., 1952, 106, 319). A more recent description of current anticonvulsant drug screening is given in Swinyard, et al., in Epilepsia, 1978, 19, 409.
The anticonvulsant activity of the instant compounds is shown in Table 5 and was evaluated according to the Swinyard (1952) method. The abbreviations used in the table have the following meanings: mpk refers to the dose orally administered in “mg per Kg;” and, ED50 refers to the “50% Effective Dose” orally administered in mpk. The values marked by an * represent the number of mice protected/number of mice tested; therefore, a value of 3/3 represents that the number of mice protected matched the number of mice tested at the indicated dose.
On the technique in general: The maximal electroshock test induces tonic seizures with an electrical stimulus.

Assay [4] concerns voltage-gated sodium channels. Description: [14C]guanidinium flux assay in SK-N-SH cells (veratridine stimulus). The assay is classed as cell-based. As to conditions: 10 μM compound, 100 μM veratridine. On the procedure: Screening Assay for Voltage-Gated Sodium Channel Antagonists [^14C] Guanidinium Flux Assay
SK-N-SH neuroblastoma cells were maintained in a propagation medium containing modified Eagle's medium and 10% (v/v) fetal bovine serum and were incubated at 37° C. in a 5% CO2 atmosphere. Only cells with fewer than 20 passages were used in each assay. All drugs were prepared in DMSO, and the final concentration of solvent was less than 0.1% (v/v). Veratridine, a toxin that selectively promotes persistent activation of voltage-gated sodium channels, served as the stimulus.
SK-N-SH cells were plated at 1×10^5 cells/well in 96-well Cytostar-T microscintillating plates in propagation medium and experiments were performed 6-7 days after plating. Prior to assay, the SK-N-SH cells were washed twice with assay buffer containing 50 mM HEPES (pH 7.45), 5.4 mM potassium chloride, 0.8 mM magnesium chloride, 130 mM choline chloride, 5.5 mM glucose and 0.1 mg/mL bovine serum albumin. Next, the plates were allowed to equilibrate for 10 min at 37° C. in assay buffer. After this incubation period, the cells were stimulated with 100 μM veratridine in the presence or absence of investigational compounds prepared in a 96-well plate (prepared at a final concentration of 10 μM in DMSO). The 96-well dosing plate was prepared by mixing 25 μL of a drug/assay buffer solution per well with 25 μL of 0.7 μCi/mL [^14C]guanidine hydrochloride in assay buffer. 50 μL aliquots from the dosing plate were then added to the cells. One sample containing 100 μM veratridine and 10 μM tetrodotoxin accounted for nonspecific activity. The plates were incubated for 1 hr at room temperature and the radioactivity was counted in a 1450 Microbeta scintillation counter.

For orientation: ED50 means the dose that gives a 50% effect, or the effect in half of the subjects. A lower ED50 goes with an effect at a small dose.

Marks after values point to notes of the source that are not given here.

On to `Cn1cc(C(=O)c2ccncc2)cc1C(=O)c1ccccc1` [Cpd 2, (5-Benzoyl-1-methyl-1H-pyrrol-3-yl)pyridin-4-ylmethanone], for which the “% FI at 10 μM (% fluorescence inhibition)” value in assay [1] is on record as 76%. Moreover, the “% MPE in the Chung Model” value in assay [2] is given as 7%.

For the compound `Cc1ccc(C(=O)c2cc(C(=O)c3ccncc3)cn2C)cc1.Cl` [Cpd 3, [1-Methyl-5-(4-methylbenzoyl)-1H-pyrrol-3-yl]pyridin-4-ylmethanone Hydrochloride], the “% FI at 10 μM (% fluorescence inhibition)” value in assay [1] is listed as 45%. Further, the “MES Response, number of mice protected/number of mice tested” value in assay [3] (@ 100 mpk) was 3/3* @ 100 mpk. Besides, the “% MPE in the Chung Model” value in assay [2] amounted to 5%.

On to `Cl.Cn1cc(C(=O)c2ccncc2)cc1C(=O)c1cccs1` [Cpd 4, [1-Methyl-5-(thiophene-2-carbonyl)-1H-pyrrol-3-yl]pyridin-4-ylmethanone hydrochloride], for which the “% FI at 10 μM (% fluorescence inhibition)” value in assay [1] amounted to 49%. The “MES Response, number of mice protected/number of mice tested” value in assay [3] (@ 300 mpk) is 0/1* @ 300 mpk.

For the compound `Cl.Cn1cc(C(=O)c2cccnc2)cc1C(=O)c1ccc(Cl)cc1.Cn1cc(C(=O)c2cccnc2)cc1C(=O)c1ccc(Cl)cc1.O` [Cpd 5, [5-(4-Chlorobenzoyl)-1-methyl-1H-pyrrol-3-yl]pyridin-3-ylmethanone hydrochoride hydrate [2:1:1]], the “% FI at 10 μM (% fluorescence inhibition)” value in assay [1] is recorded as 26%. Besides, the “% GFI at 10 μM (% guanidinium flux inhibition)” value in assay [4] was found to be 55%. Further, the “% MPE in the Chung Model” value in assay [2] is 9%.

`Cn1cc(C(=O)c2ccccn2)cc1C(=O)c1ccc(Cl)cc1` [Cpd 6, [5-(4-Chlorobenzoyl)-1-methyl-1H-pyrrol-3-yl]pyridin-2-yl-methanone]: the “% FI at 10 μM (% fluorescence inhibition)” value in assay [1] came to 25%. Besides, the “% GFI at 10 μM (% guanidinium flux inhibition)” value in assay [4] is 74%. Also, the “MES Response, number of mice protected/number of mice tested” value in assay [3] (@ 30 mpk) is given as 1/1* @ 30 mpk. Besides, the “% MPE in the Chung Model” value in assay [2] is 12%.

Regarding `Cl.Cn1cc(C(=O)c2ccc(F)cc2)cc1C(=O)c1cccnc1` [Cpd 7, (4-Fluorophenyl)-[1-methyl-5-(pyridine-3-carbonyl)-1H-pyrrol-3-yl]methanone Hydrochloride], the “% FI at 10 μM (% fluorescence inhibition)” value in assay [1] was found to be 45%. Besides, in assay [4], the “% GFI at 10 μM (% guanidinium flux inhibition)” value is given as 57%. The “MES Response, number of mice protected/number of mice tested” value in assay [3] (@ 100 mpk) is 2/3* @ 100 mpk. Further, the 50% effect level in assay [2] (po, orally administered) (ED50) was put at a dose of 22 mg/kg.

Consider `Cn1cc(C(=O)c2ccc3ccccc3c2)cc1C(=O)c1cccnc1` [Cpd 8, [1-Methyl-5-(pyridine-3-carbonyl)-1H-pyrrol-3-yl]naphthalen-2-yl-methanone], for which the “% FI at 10 μM (% fluorescence inhibition)” value in assay [1] stood at 67%. Moreover, the “% GFI at 10 μM (% guanidinium flux inhibition)” value in assay [4] was 82%. Moreover, the “MES Response, number of mice protected/number of mice tested” value in assay [3] (@ 300 mpk) was 0/1* @ 300 mpk. The “% MPE in the Chung Model” value in assay [2] came out at 1.3%.

Consider `Cn1cc(C(=O)c2ccc(Cl)cc2)cc1C(=O)c1ccc(Cl)nc1` [Cpd 9, (4-Chlorophenyl)-[5-(6-chloropyridine-3-carbonyl)-1-methyl-1H-pyrrol-3-yl]methanone], for which the “% FI at 10 μM (% fluorescence inhibition)” value in assay [1] was 26%. In addition, in assay [4], the “% GFI at 10 μM (% guanidinium flux inhibition)” value was found to be 31%. Moreover, in assay [2], the “% MPE in the Chung Model” value is 5%.

For `Cn1cc(C(=O)c2ccc(F)cc2)cc1C(=O)c1ccncc1` [Cpd 11, (4-Fluorophenyl)-[1-methyl-5-(pyridine-4-carbonyl)-1H-pyrrol-3-yl]methanone], the “% FI at 10 μM (% fluorescence inhibition)” value in assay [1] was determined as 39%. The “MES Response, number of mice protected/number of mice tested” value in assay [3] (@ 300 mpk) was 0/1* @ 300 mpk. Besides, the “% MPE in the Chung Model” value in assay [2] came to 10%.

Turning to `Cn1cc(C(O)c2ccncc2)cc1C(=O)c1ccc(Cl)cc1` (centres unmarked) [Cpd 12, (4-Chlorophenyl)-[4-(hydroxypyridin-4-yl-methyl)-1-methyl-1H-pyrrol-2-yl]-methanone], the “% FI at 10 μM (% fluorescence inhibition)” value in assay [1] is 60%. For the same compound, in assay [2], the “% MPE in the Chung Model” value is reported as 3.7%.

On to `Cn1cc(C(=O)c2cnc[nH]2)cc1C(=O)c1ccc(Cl)cc1` [Cpd 13, (4-Chlorophenyl)-[4-(3H-imidazole-4-carbonyl)-1-methyl-1H-pyrrol-2-yl]methanone], for which the “% FI at 10 μM (% fluorescence inhibition)” value in assay [1] is recorded as 62%. Also, the “% GFI at 10 μM (% guanidinium flux inhibition)” value in assay [4] turned out to be 24%.

Turning to `Cn1cc(C(=O)c2cc[n+](C)cc2)cc1C(=O)c1ccc(Cl)cc1.O.O=S(=O)([O-])C(F)(F)F` [Cpd 14, 4-[[5-(4-Chlorobenzoyl)-1-methyl-1H-pyrrol-3-yl]carbonyl]-1-methylpyridinium trifluoromethanesulfonate hydrate [5:1]], the “% FI at 10 μM (% fluorescence inhibition)” value in assay [1] came to 54%. Also, the “% GFI at 10 μM (% guanidinium flux inhibition)” value in assay [4] was 14%.

`Cn1cc(C(=O)c2cc[n+]([O-])cc2)cc1C(=O)c1ccc(Cl)cc1` [Cpd 15, (4-Chlorophenyl)-[1-methyl-4-(1-oxypyridine-4-carbonyl)-1H-pyrrol-2-yl]methanone]: the “% FI at 10 μM (% fluorescence inhibition)” value in assay [1] is 40%. Also, in assay [4], the “% GFI at 10 μM (% guanidinium flux inhibition)” value is recorded as 4%. In addition, the “% MPE in the Chung Model” value in assay [2] is 7.9%.

Consider `Cn1cc(C(O)c2cc[n+]([O-])cc2)cc1C(=O)c1ccc(Cl)cc1` (centres unmarked) [Cpd 16, (4-Chlorophenyl)-{4-[hydroxy-(1-oxy-pyridin-4-yl)methyl]-1-methyl-1H-pyrrol-2-yl}methanone], for which, in assay [1], the “% FI at 10 μM (% fluorescence inhibition)” value is listed as 29%. Moreover, the “ED50 in the Chung Model” value in assay [2] (orally administered) is listed as “ED50 = 29 mpk”.

For `Cc1c(C(=O)c2ccc(F)cc2)c(C)n(C)c1C(=O)c1cccnc1` [Cpd 17, (4-Fluorophenyl)-[1,2,4-trimethyl-5-(pyridine-3-carbonyl)-1H-pyrrol-3-yl]methanone], in assay [1], the “% FI at 10 μM (% fluorescence inhibition)” value is 15%. The “% MPE in the Chung Model” value in assay [2] is 59%.

Source of the values: patent US6897319B2, “Useful aroyl pyrrole heteroaryl methanones and methanols” (Ortho-McNeil Pharmaceutical, Inc., priority 2001, dated 2005).
